Read-outs that look alike come from different tables or passages of the source.
Key:
MDA-MB-231BR cells = assay: Clonogenic survival assay; type: cell-based; conditions: 100 μM, 48 h treatment, 10 days growth
Procedure: Triple-negative brain trophic cells MDA-MB-231BR and 4T1BR cells were a kind gift from Dr. Patricia Steeg (Center for Cancer Research, National Cancer Institute) ([Achrol et al., 2019]). Both cell lines were cultured in DMEM supplemented with 10% fetal bovine serum (FBS), 5% 10,000 Units/mL Penicillin-10,000 μg/mL Streptomycin, and 5% 200 mM L-Glutamine. For crystal violet staining, 5 × 10^4 cells were plated and subjected to the treatments as described in the individual figures and then stained with 0.5% crystal violet prepared in a 1:1 methanol-water solution followed by PBS washes. ACSS2 inhibitors were dissolved in 100% ultra-pure DMSO.
To assess clonogenic survival, 1 × 10^5 cells were seeded into a 6-well plate until 70%–80% confluency and treated for 48 h with analogs at 100 uM (unless otherwise stated in the figure legend). After 48 h, cells were trypsinized and counted using hemocytomer, and 1 × 10^4 cells per treatment were plated into a 6-well plate with fresh culture medium and allowed to grow for 10 days. Following 10-day incubation, cells were washed twice with PBS, stained with crystal violet for 30 min, and washed with dH2O twice. Colonies >50mircons were counted. For crystal violet staining, 0.5% crystal violet was prepared in a 1:1 methanol-water solution.

[1] = Human liver microsome stability; conditions: for half-life: Human Liver Microsome Stability T1/2, human liver microsomes
MDR1 (P-gp) = assay: Bi-directional permeability across MDR1-MDCK cell monolayer (BBB assay); type: in vitro ADME, canine; conditions: dog; MDR1-MDCK I monolayer, A to B
Description: This assay provides the apparent permeability coefficient (Papp), efflux ratio, and % recovery to assess compound permeation.

ACSS2 [2] = target: T1, ACSS2 (Homo sapiens, UniProt Q9NR19); assay: SPR binding to immobilized ACSS2; conditions: mean; for koff / kon: 1:1 binding model
T1 construct: His-tag (N); His-tag (C); made in house; host or cells: E. coli BL21 (DE3) RIL
Procedure: Overproduction of ACSS2 was achieved using a prokaryotic expression system. […] The bacterial expressions were then spun down, the supernatant discarded, and the pellets resuspended in 50 mM Tris HCl pH8.0, 800 mM NaCl, 5 mM Imidazole, 2 mM MgCl2, 10% Glycerol, 0.1 mg/mL Lysozyme, 1 mM Protease inhibitor (PMSF). After the cells were lysed via sonication, the sample was subjected to ultracentrifugation, and the clarified lysate was applied to a 5 mL Talon cobalt resin affinity column (Clonetech Laboratories, Mountain View, CA). The bound protein was washed with 300 mL wash buffer 1 (20 mM Tris HCl pH8.0, 800 mM NaCl, 15 mM Imidazole, 5 mM MgCl2, 10% Glycerol, 0.1% CHAPS) and 300 mL wash buffer 2 (20 mM Tris HCl pH8.0, 400 mM NaCl, 18 mM Imidazole, 5 mM MgCl2, 10% Glycerol) prior elution with 20 mM Tris HCl pH8.0, 400 mM NaCl, 300 mM Imidazole, 2 mM MgCl2, 5% Glycerol. Eluted ACSS2 was then dialyzed overnight into 20 mM Tris HCl pH8.0, 150 mM NaCl, 5% Glycerol, concentrated and applied to a Superdex S-200 (16/600) using the same buffer without Glycerol. ACSS2 fractions were pooled, concentrated to 3 mg/mL, aliquoted, and stored at −80°C. hACSS1 was obtained from a commercial vendor (www.mybiosource.com).
All binding assays were performed on a ProteOn XPR36 SPR Protein Interaction Array System (Bio-Rad Laboratories, Hercules, CA, United States). The instrument temperature was set at 25°C for all kinetic analyses. ProteOn GLH sensor chips were preconditioned with two short pulses each (10 s) of 50 mM NaOH, 100 mM HCl, and 0.5% sodium […]. Then, the system was equilibrated with running buffer (1x PBS pH 7.4, 3% DMSO, and 0.005% polysorbate 20). The surface of a GLH sensor chip was activated with a 1:100 dilution of a 1:1 mixture of 1-ethyl-3-(3-dimethylaminopropyl) carbodiimide hydrochloride (0.2 M) and sulfo-N-hydroxysuccinimide (0.05 M). Immediately after chip activation, the human ACSS2 or hACSS1 proteins were prepared at a concentration of 10 μg/mL in 10 mM sodium acetate, pH 5.5, and injected across ligand flow channels for 5 min at a flow rate of 30 μL/min. Then, after unreacted protein had been washed out, excess active ester groups on the sensor surface were capped by a 5 min injection of 1M ethanolamine HCl (pH 8.0) at a flow rate of 5 μL/min. A reference surface was similarly created by immobilizing a nonspecific protein (IgG b12 anti-HIV-1 gp120; was obtained through the NIH AIDS Reagent Program, Division of AIDS, NIAID, NIH: Anti-HIV-1 gp120 Monoclonal (IgG1 b12) from Dr. Dennis Burton and Carlos Barbas) and was used as a background to correct nonspecific binding. […] Data were analyzed using the ProteOn Manager Software version 3.0 (Bio-Rad). The responses from the reference flow cell were subtracted to account for the nonspecific binding and injection artifacts. Experimental data were fitted to a simple 1:1 binding model. Experiments were performed in triplicate to detect kinetic and equilibrium dissociation constants (KD).

ACSS2 [3] = target: T1, ACSS2; assay: Fluorescence polarization-based ACSS2 biochemical assay (ATP to AMP conversion); conditions: 100 nM ACSS2, triplicate, ± SD; read-out: IC50, inhibition of ATP to AMP conversion of ACSS2
Procedure: ACSS2 enzyme activity was measured using the TranScreener AMP^2/GMP^2 Assay Kit—FP Readout assay (BellBrook Labs). The assay was performed in white, opaque, 96-well plates. […] ACSS2 was used in assay buffer (30 mM HEPES, pH 7.4, 140 mM NaCl, 2 mM MgCl2, 5 mM sodium acetate, 2 mM DTT, 0.05% CHAPS). Substrate mix was added, followed by a 60-min incubation. Final substrate concentrations were 5 mM acetate, 50 μM ATP, and 5 μM CoA. After incubation, conjugated AMP antibody and AMP tracer were added according to the methods described by BellBrook Labs. After 30 min, the FP signal was measured using a Tecan Spark multimode microplate reader. In the analysis, data were normalized to represent the percentage inhibition of ATPase activity.

FASN = assay: Immunoblot of FASN protein levels; type: cell-based; conditions: MDA-MB-231BR cells, 24 h
Procedure: Immunoblotting protocols have been previously described. Briefly, cell lysates from one to five x 10^6 cells were prepared in radioimmune precipitation assay buffer (150 mM NaCl, 1% NP40, 0.5% DOC, 50 mM Tris HCL at pH 8, 0.1% SDS, 10% glycerol, 5 mM EDTA, 20 mM NaF, and 1 mM Na3VO4) supplemented with 1 μg/mL each of pepstatin, leupeptin, aprotinin, and 200 μg/mL PMSF. Lysates were cleared by centrifugation at 16,000 x g for 15 min at 4°C and analyzed by SDS-PAGE and autoradiography with chemiluminescence. Proteins were analyzed by immunoblotting using primary antibodies indicated above.

[4] = 25°C, Langmuir isotherm equilibrium fit, n=3, read-out: KD equilibrium
[5] = global fit, n=3, read-out: KD kinetic/global

T1 sequence (Q9NR19 whole entry): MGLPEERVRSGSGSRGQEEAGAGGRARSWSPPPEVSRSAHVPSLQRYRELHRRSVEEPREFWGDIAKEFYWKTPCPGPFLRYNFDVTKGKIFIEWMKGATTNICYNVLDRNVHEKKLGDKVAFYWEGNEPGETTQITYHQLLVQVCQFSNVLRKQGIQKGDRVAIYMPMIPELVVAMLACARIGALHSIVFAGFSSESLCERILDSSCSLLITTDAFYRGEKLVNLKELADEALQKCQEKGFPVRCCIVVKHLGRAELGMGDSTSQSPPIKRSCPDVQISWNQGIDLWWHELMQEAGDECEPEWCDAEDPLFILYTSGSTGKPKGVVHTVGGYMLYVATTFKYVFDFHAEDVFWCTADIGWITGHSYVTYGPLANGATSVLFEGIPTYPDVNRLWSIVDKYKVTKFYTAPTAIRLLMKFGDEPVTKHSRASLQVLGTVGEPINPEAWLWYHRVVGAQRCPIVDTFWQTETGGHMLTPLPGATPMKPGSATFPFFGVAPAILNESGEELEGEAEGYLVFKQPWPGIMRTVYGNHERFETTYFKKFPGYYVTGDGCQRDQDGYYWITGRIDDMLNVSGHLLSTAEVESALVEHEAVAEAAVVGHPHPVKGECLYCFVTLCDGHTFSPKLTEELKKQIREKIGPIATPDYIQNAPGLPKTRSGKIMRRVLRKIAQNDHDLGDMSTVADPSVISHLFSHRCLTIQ

SMILES: C[C@H](N)C(=O)N1CCCC(c2ccccc2)(c2ccccc2)C1 [AD-1363]
- clonogenic survival (MDA-MB-231BR cells): significant reduction in clonogenic survival

SMILES: O=C(CCN1CCCC(c2ccccc2)(c2ccccc2)C1)NC1CC1 [AD-2441]
- clonogenic survival (MDA-MB-231BR cells): significantly reduce clonogenic survival

SMILES: C[C@]12CC[C@H]3[C@@H](CCC4=CC(=O)CC[C@@]43C)[C@@H]1CC[C@@H]2O [Testosterone, reference compound]
- Remaining (T=60min) ([1]; human liver microsomes): 0.06959
- Remaining (NCF=60min) ([1]; human liver microsomes): 0.8976
- CLint(liver) ([1]; human liver microsomes, scaled): 80.3781 mL/min/kg

SMILES: COCCc1ccc(OCC(O)CNC(C)C)cc1 (stereo not shown) [Metoprolol, reference compound]
- Papp A→B (MDR1 (P-gp)): 12.9 ×10⁻⁶ cm/s

SMILES: Cc1cccn2c(CC(=O)NCCC(c3ccccc3)c3ccco3)cnc12 (stereo not shown) [AD-3766]
- koff (ACSS2 [2]; n=3, read-out: koff): 0.359 s⁻¹
- kon (ACSS2 [2]; n=3, read-out: kon): 5010 M⁻¹ s⁻¹
- Kd (ACSS2 [2]; [4]): 70.6 µM
- Kd (ACSS2 [2]; [5]): 77.6 µM
- clonogenic survival (MDA-MB-231BR cells): significant reduction in clonogenic survival
- Remaining (T=60min) ([1]; human liver microsomes): 0.0005
- Remaining (NCF=60min) ([1]; human liver microsomes): 0.9639
- CLint scaled ([1]; human, liver microsomes): 1360 mL/min/kg
- Human Liver Microsome Stability T1/2 ([1]; human, liver microsomes): 54 s
- microsomal CLint ([1]; human, liver microsomes): 1520 µL/min/mg
- half-life ([1]; human, liver microsomes): 54.8 s

SMILES: O=C(O)Cc1ccccc1Nc1c(Cl)cccc1Cl [Diclofenac, reference compound]
- Remaining (T=60min) ([1]; human liver microsomes): 0.00044
- Remaining (NCF=60min) ([1]; human liver microsomes): 0.8763
- CLint scaled ([1]; human, liver microsomes): 236 mL/min/kg
- microsomal CLint ([1]; human, liver microsomes): 262 µL/min/mg
- half-life ([1]; human, liver microsomes): 318 s

SMILES: COCCNC(=O)Nc1ccc2nc(-c3cccs3)c(-c3cccs3)nc2c1 [VY-3-249, reference compound]
- koff (ACSS2 [2]; n=3): 0.105 s⁻¹
- kon (ACSS2 [2]; n=3): 1800 M⁻¹ s⁻¹
- Kd (ACSS2 [2]; [4]): 53.2 µM
- Kd (ACSS2 [2]; [5]): 66 µM
- IC50 (ACSS2 [3]): 1.2 ± 0.49 µM
- clonogenic survival (MDA-MB-231BR cells): significantly reduce clonogenic survival
- protein levels of FASN (FASN): reduced protein levels of FASN

SMILES: CN1CCC(O)(C(=O)NCCc2ccccc2Oc2ccccc2)CC1 [AD-7346]
- koff (ACSS2 [2]; n=3, read-out: koff): 0.399 s⁻¹
- kon (ACSS2 [2]; n=3, read-out: kon): 10100 M⁻¹ s⁻¹
- Kd (ACSS2 [2]; [4]): 39.8 µM
- Kd (ACSS2 [2]; [5]): 49.4 µM
- IC50 (ACSS2 [3]): 2.03 ± 0.21 µM
